Test results taken from patent publication US20260262643A1, “HERBICIDAL BENZOXAZINES” (FMC CORPORATION, priority 2022, published 2026).

How the values were obtained:
[1] = test system: oat, wild; assay: Test A postemergence; assay type: in vivo, Avena fatua
How it was run: (§1)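 Loam/sand soil; pre-em directed soil spray at planting, post-em spray at 1–2 leaf (2–10 cm). Compound in non-phytotoxic solvent + surfactant. Greenhouse 10 d; visual injury vs untreated, 0 = no effect, 100 = complete control.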

[2] = test system: barnyardgrass; assay: Test B flooded paddy test; assay type: in vivo, Echinochloa crus-galli; conditions: 250 g ai/ha, Flood, 13 days, 0 to 100 scale (0 no effect, 100 complete control)
How it was run: (§2)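 Plants at the 2-leaf stage were flooded to 3 cm above the soil, and test compounds were applied directly into the paddy water, with that depth held throughout. After 13 days in a greenhouse, injury was rated visually against untreated controls on a 0–100 scale (100 = complete control).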

[3] = test system: rice; assay: Test B flooded paddy test; assay type: in vivo, Oryza sativa; conditions: 250 g ai/ha, Flood, 13 days, 0 to 100 scale (0 no effect, 100 complete control)
How it was run: as §2

[4] = test system: corn; assay: Test A postemergence; assay type: in vivo, Zea mays
How it was run: as §1

[5] = test system: soybean; assay: Test A preemergence; assay type: in vivo, Glycine max
How it was run: as §1

[6] = test system: horseweed; assay: Test A postemergence; assay type: in vivo, Erigeron canadensis
How it was run: as §1

[7] = test system: pigweed, palmer; assay: Test A postemergence; assay type: in vivo, Amaranthus palmeri
How it was run: as §1

[8] = test system: ryegrass, Italian; assay: Test A postemergence; assay type: in vivo, Lolium multiflorum
How it was run: as §1

[9] = test system: blackgrass; assay: Test A preemergence; assay type: in vivo, Alopecurus myosuroides
How it was run: as §1

[10] = test system: wheat; assay: Test A postemergence; assay type: in vivo, Triticum aestivum
How it was run: as §1

[11] = test system: sedge, umbrella; assay: Test B flooded paddy test; assay type: in vivo, Cyperus difformis; conditions: 250 g ai/ha, Flood, 13 days, 0 to 100 scale (0 no effect, 100 complete control)
How it was run: as §2

[12] = test system: wheat; assay: Test A preemergence; assay type: in vivo, Triticum aestivum
How it was run: as §1

[13] = test system: ragweed; assay: Test A postemergence; assay type: in vivo, Ambrosia artemisiifolia
How it was run: as §1

[14] = test system: foxtail, giant; assay: Test A postemergence; assay type: in vivo, Setaria faberi
How it was run: as §1

[15] = test system: soybean; assay: Test A postemergence; assay type: in vivo, Glycine max
How it was run: as §1

[16] = test system: goosegrass; assay: Test A preemergence; assay type: in vivo, Eleusine indica
How it was run: as §1

[17] = test system: ragweed; assay: Test A preemergence; assay type: in vivo, Ambrosia artemisiifolia
How it was run: as §1

[18] = test system: galium; assay: Test A postemergence; assay type: in vivo, Galium aparine
How it was run: as §1

[19] = test system: kochia; assay: Test A postemergence; assay type: in vivo, Bassia scoparia
How it was run: as §1

[20] = test system: corn; assay: Test A preemergence; assay type: in vivo, Zea mays
How it was run: as §1

[21] = test system: oat, wild; assay: Test A preemergence; assay type: in vivo, Avena fatua
How it was run: as §1

[22] = test system: blackgrass; assay: Test A postemergence; assay type: in vivo, Alopecurus myosuroides
How it was run: as §1

[23] = test system: pigweed, palmer; assay: Test A preemergence; assay type: in vivo, Amaranthus palmeri
How it was run: as §1

[24] = test system: ryegrass, Italian; assay: Test A preemergence; assay type: in vivo, Lolium multiflorum
How it was run: as §1

[25] = test system: ducksalad; assay: Test B flooded paddy test; assay type: in vivo, Heteranthera limosa; conditions: 250 g ai/ha, Flood, 13 days, 0 to 100 scale (0 no effect, 100 complete control)
How it was run: as §2

[26] = test system: foxtail, giant; assay: Test A preemergence; assay type: in vivo, Setaria faberi
How it was run: as §1

[27] = test system: goosegrass; assay: Test A postemergence; assay type: in vivo, Eleusine indica
How it was run: as §1

[28] = test system: kochia; assay: Test A preemergence; assay type: in vivo, Bassia scoparia
How it was run: as §1

[29] = 125 g ai/ha, postemergence, 10 days, visual injury, 0 to 100 scale (0 no effect, 100 complete control)
[30] = 500 g ai/ha, Postemergence, 0 to 100 scale
[31] = 125 g ai/ha, visual injury after 10 days, 0 to 100 scale, 0 is no effect, 100 is complete control
[32] = 500 g ai/ha, 0 to 100 scale (0 no effect, 100 complete control), 10 days
[33] = 125 g ai/ha, postemergence, 10 days, 0 to 100 scale, 0 no effect, 100 complete control
[34] = 500 g ai/ha, postemergence, 10 days, visual injury, 0 to 100 scale (0 no effect, 100 complete control)

Cc1cccc2c1O[C@@H](C)CN2C(=O)c1cc(-n2cncn2)ccc1Cl [Compound 60]
35: Plant response rating, Sedge, Umbrella [11]
10: Plant response rating, Blackgrass [22, 29] | Plant response rating, Goosegrass [27, 29]
90: Plant response rating, Oat, Wild [1, 30] | Plant response rating, Foxtail, Giant [14, 29] | Plant response rating, Foxtail, Giant [14, 30] | Plant response rating, Galium [18, 29] | Plant response rating, Pigweed, Palmer [23, 32]
70: Plant response rating, Blackgrass [9, 32] | Plant response rating, Kochia [19, 30]
45: Plant response rating, Ducksalad [25]
60: Plant response rating, Ryegrass, Italian [8, 30] | Plant response rating, Wheat [10, 30] | Plant response rating, Blackgrass [22, 30]
0: Plant response rating, Rice [3] | Plant response rating, Horseweed [6, 29] | Plant response rating, Horseweed [6, 30] | Plant response rating, Ryegrass, Italian [8, 29] | Plant response rating, Wheat [12, 31] | Plant response rating, Ragweed [17, 31] | Plant response rating, Oat, Wild [21, 31] | Plant response rating, Oat, Wild [21, 32] | Plant response rating, Kochia [28, 31]
40: Plant response rating, Soybean [5, 31]
20: Plant response rating, Pigweed, Palmer [7, 29] | Plant response rating, Blackgrass [9, 31] | Plant response rating, Ragweed [13, 29] | Plant response rating, Ragweed [17, 32] | Plant response rating, Kochia [19, 29] | Plant response rating, Corn [20, 31]
15: Plant response rating, Barnyardgrass [2]
100: Plant response rating, Soybean [5, 32] | Plant response rating, Soybean [15, 29] | Plant response rating, Soybean [15, 30] | Plant response rating, Goosegrass [16, 31] | Plant response rating, Goosegrass [16, 32] | Plant response rating, Galium [18, 30] | Plant response rating, Ryegrass, Italian [24, 31] | Plant response rating, Ryegrass, Italian [24, 32] | Plant response rating, Foxtail, Giant [26, 31] | Plant response rating, Foxtail, Giant [26, 32]
80: Plant response rating, Corn [4, 30] | Plant response rating, Goosegrass [27, 30]
50: Plant response rating, Oat, Wild [1, 29] | Plant response rating, Pigweed, Palmer [7, 30] | Plant response rating, Ragweed [13, 30]
30: Plant response rating, Corn [4, 29] | Plant response rating, Wheat [10, 29] | Plant response rating, Wheat [12, 32] | Plant response rating, Corn [20, 32] | Plant response rating, Pigweed, Palmer [23, 31] | Plant response rating, Kochia [28, 32]

CCc1ncn(-c2ccc(C)c(C(=O)N3C[C@H](C)Oc4c(C)cccc43)c2)n1 [Compound 98]
50: Corn plant response rating [4, 33] | Plant response rating, Wheat [12, 31]
30: Plant response rating, Rice [3] | Horseweed plant response rating [6, 33] | Plant response rating, Ragweed [17, 31] | Plant response rating, Corn [20, 32]
10: Plant response rating, Corn [20, 31]
45: Plant response rating, Barnyardgrass [2]
80: Oat, Wild plant response rating [1, 33] | Plant response rating, Blackgrass [9, 32] | Wheat plant response rating [10, 33] | Kochia plant response rating [19, 33] | Goosegrass plant response rating [27, 33] | Plant response rating, Kochia [28, 31]
90: Plant response rating, Oat, Wild [1, 34] | Plant response rating, Corn [4, 34] | Plant response rating, Soybean [5, 31] | Pigweed, Palmer plant response rating [7, 33] | Plant response rating, Wheat [10, 34] | Plant response rating, Sedge, Umbrella [11] | Foxtail, Giant plant response rating [14, 33] | Plant response rating, Foxtail, Giant [14, 34] | Plant response rating, Ragweed [17, 32] | Plant response rating, Kochia [19, 34] | Plant response rating, Oat, Wild [21, 32] | Plant response rating, Blackgrass [22, 34]
65: Plant response rating, Ducksalad [25]
60: Plant response rating, Horseweed [6, 34] | Plant response rating, Blackgrass [9, 31] | Plant response rating, Wheat [12, 32] | Ragweed plant response rating [13, 33] | Plant response rating, Ragweed [13, 34]
70: Ryegrass, Italian plant response rating [8, 33] | Plant response rating, Oat, Wild [21, 31] | Blackgrass plant response rating [22, 33]
100: Plant response rating, Soybean [5, 32] | Plant response rating, Pigweed, Palmer [7, 34] | Plant response rating, Ryegrass, Italian [8, 34] | Soybean plant response rating [15, 33] | Plant response rating, Soybean [15, 34] | Plant response rating, Goosegrass [16, 31] | Plant response rating, Goosegrass [16, 32] | Galium plant response rating [18, 33] | Plant response rating, Galium [18, 34] | Plant response rating, Pigweed, Palmer [23, 31] | Plant response rating, Pigweed, Palmer [23, 32] | Plant response rating, Ryegrass, Italian [24, 31] | Plant response rating, Ryegrass, Italian [24, 32] | Plant response rating, Foxtail, Giant [26, 31] | Plant response rating, Foxtail, Giant [26, 32] | Plant response rating, Goosegrass [27, 34] | Plant response rating, Kochia [28, 32]
